Reference: US20240180898A1, “USE OF AMINOTHIAZOLE DERIVATIVE IN TREATMENT OF IMMUNE INFLAMMATION” (INNAMUNE PHARMACEUTICAL CO. LTD., priority 2021, published 2024)

Experiments:
[1] = tested on: bone marrow derived macrophages; assay: bone marrow derived macrophage pyroptosis model (LPS + ATP); assay type: cell-based
Description: Preparation and grouping of bone marrow derived macrophage pyroptosis model:
Model preparation: After LPS (500 ng/ml) stimulation of bone marrow derived macrophages for 6 hours, ATP (5 mmol/L) stimulation for 2 hours, followed by cell collection and supernatant detection.
The experiment was divided into four groups, namely: • Control group (normal cell culture medium), • Model group (with LPS and ATP stimulation added to the culture medium), • TJ-5 (10 μmol/L) group (2 hours before LPS stimulation, administer 10 μmol/L TJ-5 drug stimulation), • TJ-5 (30 μmol/L) group (2 hours before LPS stimulation, administer 30 μmol/L TJ-5 drug stimulation).
Collect cells and their supernatant for detection at the endpoint of the experiment.

[2] = tested on: Balb/c mouse psoriasis model; assay: mouse psoriasis model (imiquimod cream); assay type: in vivo
Description: Preparation and grouping of mouse […] model:
Model preparation: Male Balb/c mice aged 6-8 weeks were shaved on the back skin and coated with 5% imiquimod (IMQ) cream once a day for 7 consecutive days.
The experiment was divided into three groups, namely: • Psoriasis control group (without any treatment, psoriasis model group), TJ-M2010-5 systemic medication group (intraperitoneal injection), and TJ-M2010-5 local medication group (ointment group). The specific handling method is as follows: • TJ-M2010-5 systemic medication group: A Balb/c mouse psoriasis model was taken and TJ- M2010-5 was injected intraperitoneally at a dose of 50 mg/kg, once a day, for 2 consecutive weeks. • TJ-M2010-5 local medication group: A Balb/c mouse psoriasis model was taken, and 1% TJ-M2010-5 ointment was applied on the skin, once a day, for 2 consecutive weeks.

high-fat diet obese mice = assay: high-fat diet obesity and fatty liver model; assay type: in vivo, mouse
Description: Feed B6 mice with a high-fat diet (HFD) to create an obesity model. Divide the animals into three groups: normal diet group, high-fat diet group, and high-fat diet group with INNA1605 (TJ-M2010-5) added at the same time. Conduct three control groups to measure body weight, inguinal and epididymal fat size, liver size, and examine the liver and various adipose tissues of each group.

[3] = tested on: middle cerebral artery occlusion (MCAO) model; assay: reperfusion injury after acute cerebral infarction (MCAO model); assay type: in vivo, mouse; conditions: 15 mg/kg intravenously, 1 hour ischemia, 24 hours reperfusion
Description: Preparation and grouping of a mouse model of reperfusion injury after acute cerebral infarction: Model preparation: Adult male C57BL/6 mice (8-10 weeks old, weighing 22-25 g) were fasted for 8 hours before surgery and allowed to drink freely. Intraperitoneal injection of 1% pentobarbital sodium solution for anesthesia. […]

heart grafts = assay: allogeneic heart transplantation, Balb/c to B6; assay type: in vivo, mouse
Description: The paired mice for transplantation: The donor mouse is a balb/c mouse; The recipient mouse is B6 mouse. Transplant the donor's skin or heart separately to the recipient. After skin transplantation, INNA1605 (TJ-M2010-5) was continuously used for 2 weeks and then stopped. About 38% of the transplanted skin was permanently non-rejection. After administering TJ-M2010-5 for two weeks after allogeneic heart transplantation, 60% of the heart grafts were permanently not rejected. In these surviving recipient mice (non-rejection), the hearts of the same donor mice were transplanted for a second time without any treatment. The result was 100% non-rejection of the heart, confirming the development of immune tolerance against the same antigen (see FIGS. 34 and 35).

[4] = tested on: H22 hepatocellular carcinoma cells; assay: subcutaneous H22 hepatocellular carcinoma implantation; assay type: in vivo, mouse; conditions: balb/c mice
Description: H22 hepatocellular carcinoma cells were subcutaneously implanted in balb/c mice and allowed to grow freely. The animals were divided into two groups: the INNA1605 (TJ-M2010-5) group and the non-drug control group.

[5] = TJ-5 10 or 30 μmol/L before LPS + ATP

O=C(CCN1CCN(Cc2ccccc2)CC1)Nc1nc(-c2ccccc2)cs1 [INNA1605, 3-(4-benzylpiperazine-1-yl)-N-(4-phenylthiazole-2-yl) propionamide]
apoptosis (PI+ cells) of bone marrow derived macrophages ([1]; TJ-5 10 or 30 μmol/L 2 hours before LPS 500 ng/ml 6 hours + ATP 5 mmol/L 2 hours): can inhibit the apoptosis of bone marrow derived macrophages induced by LPS and ATP | activation and cleavage of GSDMD [1, 5]: significantly inhibits the activation and cleavage of GSDMD | assembly and activation of NLRP3 inflammasomes [1, 5]: can block the assembly and activation of NLRP3 inflammasomes | classical and non classical cell pyroptosis pathways [1, 5]: inhibit both classical and non classical cell pyroptosis pathways | maturation and release of Pro-IL-1b and Pro-IL-18 [1, 5]: inhibiting the maturation and release | secretion of LDH in cell culture supernatant [1, 5]: reduce the secretion of LDH | secretion of various inflammatory factors [1, 5]: reducing the secretion of various inflammatory factors | therapeutic effect, local medication ([2]; 1% ointment on the skin once a day, 2 weeks): excellent therapeutic effects, with a significant improvement after 7 days and a cure effect achieved after 14 days | infiltration and proliferation of mast cells ([2]; H&E and C-kit (CD117) staining): inhibits the infiltration and proliferation of mast cells | abnormally thickened stratum corneum ([2]; after treatment): can basically restore normal tissue structure after treatment | inflammatory cells in the skin ([2]; both treatments (systemic and local)): significantly reduce inflammatory cells in the skin | imbalance of spleen T cells and their subsets ([2]; flow cytometry): correct the imbalance of spleen T cells and their subsets | therapeutic effect, systemic medication ([2]; intraperitoneal 50 mg/kg once a day, 2 weeks): excellent therapeutic effects, with a significant improvement after 7 days and a cure effect achieved after 14 days | excessive keratinization and proliferation of skin keratinocytes ([2]; mouse, in vivo): inhibit excessive keratinization and proliferation of skin keratinocytes | expression of CD80 ([2]; mouse, in vivo): significantly reduces the expression of CD80 | expression of intradermal lymphokines (IL-1beta, IL-6, IL-17a, TNF-alpha, MyD88 mRNA, Cxcl2 mRNA) ([2]; mouse, in vivo): inhibits the expression of intradermal lymphokines | skin thickness ([2]; mouse, in vivo): significant thinning of skin thickness | splenomegaly ([2]; mouse, in vivo): can improve splenomegaly | MAPK signaling pathway ([2]; psoriasis model skin): inhibits the MAPK signaling pathway | synthesis and secretion of inflammatory factors ([2]; skin): inhibiting the synthesis and secretion of inflammatory factors | immune cell infiltration and activation (macrophages, neutrophils, mast cells) ([2]; skin tissue): a reduction in immune cell infiltration and activation | adipose tissue, liver, and body weight (high-fat diet obese mice; B6 mice, added with high-fat diet, FIG. 37): significantly smaller than those of the obese group and close to those of normal mice | weight of obese mice fed with high-fat diet (high-fat diet obese mice; FIG. 25): significantly reduced the weight of high-fat diet obese mice | lipid droplets in the adipose tissue and liver (high-fat diet obese mice; pathological examination, FIG. 38): significantly smaller than those of the obese group, and were similar to normal mice | reduction of infarct volume of acute cerebral infarction [3]: 80% | heart grafts permanently not rejected (heart grafts; administered for two weeks): 60% | non-rejection of second heart of the same donor mice (heart grafts; surviving recipient mice, second transplant without any treatment): 100% | tumor size [4]: significantly smaller than that in the control group
